In US20230398130A1, “METHODS AND COMPOSITIONS FOR DIFFERENTIATING STEM CELLS” (Massachusetts Institute of Technology, priority 2020, published 2023):

Assays:
ISC-enriched organoids [1] = assay: Primary screen, 384-well 2.5-D organoid differentiation (ENR+CD, 6 days, Target Selective Inhibitor Library, vs whole-plate median): ATP (CellTiter-Glo 3D, CTG); conditions: for Dose.FC.CTG: ENR+CD, 6 days, FC vs plate median; for Z.CTG: standard z score of FC
ISC-enriched organoids [2] = assay: Primary screen, 384-well 2.5-D organoid differentiation (ENR+CD, 6 days): basal lysozyme secretion (LYZ.NS); format: cell-based, murine; conditions: for Dose.FC.LYZ.NS: ENR+CD, 6 days, FC vs plate median; for Z.LYZ.NS: standard z score of FC
Description: (§1) High-throughput screening.

ISC-enriched organoids [3] = assay: Primary screen, 384-well 2.5-D organoid differentiation (ENR+CD, 6 days): carbachol-induced lysozyme secretion (LYZ.S); format: cell-based, murine; conditions: ENR+CD, 6 days, FC vs plate median
Description: as §1

Row | Compound | Dose.FC.CTG (ISC-enriched organoids [1]; Dose 0.08 uM) [log 2 fold change] | Z.CTG (ISC-enriched organoids [1]; Dose 0.08 uM) | Dose.FC.CTG (ISC-enriched organoids [1]; Dose 0.40 uM) [log 2 fold change] | Z.CTG (ISC-enriched organoids [1]; Dose 0.40 uM) | Dose.FC.CTG (ISC-enriched organoids [1]; Dose 2.00 uM) [log 2 fold change] | Z.CTG (ISC-enriched organoids [1]; Dose 2.00 uM) | Dose.FC.CTG (ISC-enriched organoids [1]; Dose 10.00 uM) [log 2 fold change] | Z.CTG (ISC-enriched organoids [1]; Dose 10.00 uM) | Dose.FC.LYZ.NS (ISC-enriched organoids [2]; Dose 0.08 uM) [log 2 fold change] | Z.LYZ.NS (ISC-enriched organoids [2]; Dose 0.08 uM) | Dose.FC.LYZ.NS (ISC-enriched organoids [2]; Dose 0.40 uM) [log 2 fold change] | Z.LYZ.NS (ISC-enriched organoids [2]; Dose 0.40 uM) | Dose.FC.LYZ.NS (ISC-enriched organoids [2]; Dose 2.00 uM) [log 2 fold change] | Z.LYZ.NS (ISC-enriched organoids [2]; Dose 2.00 uM) | Dose.FC.LYZ.NS (ISC-enriched organoids [2]; Dose 10.00 uM) [log 2 fold change] | Z.LYZ.NS (ISC-enriched organoids [2]; Dose 10.00 uM) | Dose.FC.LYZ.S (ISC-enriched organoids [3]; Dose 0.08 uM) [log 2 fold change] | Dose.FC.LYZ.S (ISC-enriched organoids [3]; Dose 0.40 uM) [log 2 fold change] | Dose.FC.LYZ.S (ISC-enriched organoids [3]; Dose 2.00 uM) [log 2 fold change] | Dose.FC.LYZ.S (ISC-enriched organoids [3]; Dose 10.00 uM) [log 2 fold change]
1 | CNC(=O)c1ccc(N2C(=S)N(c3ccc(C#N)c(C(F)(F)F)c3)C(=O)C2(C)C)cc1F [Enzalutamide (MDV3100)] | 0.195 | 0.465 | 0.256 | 0.611 | 0.076 | 0.181 | 0.146 | 0.348 | 0.162 | 1.411 | 0.166 | 1.446 | 0.024 | 0.210 | 0.094 | 0.820 | 0.176 | 0.276 | 0.077 | 0.076
2 | Cn1cc(C2=C(c3cn(C4CCN(Cc5ccccn5)CC4)c4ccccc34)C(=O)NC2=O)c2ccccc21 [Enzastaurin (LY317615)] | 0.236 | 0.565 | 0.475 | 1.135 | 0.251 | 0.600 | −0.081 | −0.194 | 0.085 | 0.744 | 0.131 | 1.143 | 0.053 | 0.458 | −0.116 | −1.012 | 0.109 | 0.251 | 0.053 | −0.226
3 | CCOC(=O)c1cncn1[C@H](C)c1ccccc1 [Etomidate] | 0.084 | 0.201 | 0.006 | 0.014 | 0.163 | 0.389 | 0.039 | 0.094 | −0.008 | −0.065 | 0.037 | 0.318 | 0.015 | 0.131 | −0.001 | −0.010 | 0.053 | 0.048 | 0.054 | −0.008
4 | CO[C@H]1C[C@@H]2CC[C@@H](C)[C@@](O)(O2)C(=O)C(=O)N2CCCC[C@H]2C(=O)O[C@H]([C@H](C)C[C@@H]2CC[C@@H](OCCO)[C@H](OC)C2)CC(=O)[C@H](C)/C=C(\C)[C@@H](O)[C@@H](OC)C(=O)[C@H](C)C[C@H](C)/C=C/C=C/C=C/1C [Everolimus (RAD001)] | 0.392 | 0.936 | 0.127 | 0.304 | 0.132 | 0.314 | −0.111 | −0.266 | 0.068 | 0.590 | 0.110 | 0.956 | −0.003 | −0.030 | −0.024 | −0.210 | −0.012 | −0.007 | −0.039 | −0.096
5 | CC1=C(C(=O)OC2CCCCC2)C(c2ccc([N+](=O)[O-])cc2)C2=C(CC(C)(C)CC2=O)N1 (centres unmarked) [FLI-06] | 0.089 | 0.213 | 0.095 | 0.226 | 0.076 | 0.182 | −0.343 | −0.819 | 0.050 | 0.439 | −0.026 | −0.230 | −0.054 | −0.466 | −0.140 | −1.216 | 0.079 | 0.010 | −0.077 | −0.170
6 | CCOC(=O)c1ccc(NC2CCCCC2)c(N)c1 [Ferrostatin-1 (Fer-1)] | 0.312 | 0.745 | 0.453 | 1.082 | 0.215 | 0.514 | −0.046 | −0.109 | 0.108 | 0.944 | 0.116 | 1.012 | 0.070 | 0.610 | 0.013 | 0.116 | 0.120 | 0.207 | 0.092 | −0.018
7 | CCCCCCCCc1ccc(CCC(N)(CO)CO)cc1.Cl [Fingolimod (FTY720) HCl] | −0.080 | −0.191 | 0.103 | 0.245 | −0.468 | −1.119 | −1.304 | −3.116 | −0.054 | −0.471 | 0.071 | 0.616 | 0.021 | 0.186 | −0.225 | −1.961 | −0.046 | 0.077 | −0.060 | −0.362
